The structures appear in SMILES notation.

The target of one assay is T1, human PDE2A1 (Homo sapiens, UniProt O00408).
T1 construct: GST; purchased BPS Bioscience (San Diego, Calif.) 60020; host or cells: insect cells
T1 sequence (O00408 1-920 isoform O00408-2): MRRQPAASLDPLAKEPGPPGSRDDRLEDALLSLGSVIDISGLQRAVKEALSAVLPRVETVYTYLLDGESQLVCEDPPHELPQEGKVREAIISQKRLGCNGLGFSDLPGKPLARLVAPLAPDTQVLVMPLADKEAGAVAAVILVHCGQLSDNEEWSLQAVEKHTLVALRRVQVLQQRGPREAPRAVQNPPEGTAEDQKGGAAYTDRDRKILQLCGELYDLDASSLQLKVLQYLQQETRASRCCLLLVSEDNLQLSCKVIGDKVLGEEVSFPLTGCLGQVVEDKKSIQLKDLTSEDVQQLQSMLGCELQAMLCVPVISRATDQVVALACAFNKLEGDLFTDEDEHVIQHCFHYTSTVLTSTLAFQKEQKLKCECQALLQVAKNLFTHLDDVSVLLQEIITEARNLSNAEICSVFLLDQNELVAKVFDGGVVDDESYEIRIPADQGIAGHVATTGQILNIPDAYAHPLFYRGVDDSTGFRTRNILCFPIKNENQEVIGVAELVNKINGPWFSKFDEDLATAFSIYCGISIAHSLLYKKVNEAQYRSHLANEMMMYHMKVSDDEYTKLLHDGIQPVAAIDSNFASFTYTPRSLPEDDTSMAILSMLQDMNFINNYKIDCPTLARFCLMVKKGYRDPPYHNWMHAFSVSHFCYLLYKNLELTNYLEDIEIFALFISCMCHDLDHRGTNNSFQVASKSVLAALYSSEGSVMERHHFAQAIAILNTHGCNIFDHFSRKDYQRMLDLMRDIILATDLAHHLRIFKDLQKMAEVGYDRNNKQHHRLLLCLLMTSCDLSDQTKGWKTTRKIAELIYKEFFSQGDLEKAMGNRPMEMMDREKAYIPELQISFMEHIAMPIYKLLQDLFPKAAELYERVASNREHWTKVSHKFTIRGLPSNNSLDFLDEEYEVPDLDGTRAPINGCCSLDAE
Briefly: PDE2 IMAP FP inhibition assay, human enzyme (PDE selectivity panel format). To be noted: Lab A; read-out: Human PDE2 Ki (nM) Lab A. In kind it is biochemical. The procedure, abridged:
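GST-tagged human PDE2A1 from insect cells, run at room temperature in 10 mM Tris pH 7.2, 10 mM MgCl2, 1 mM DTT with 50 nM FAM-cAMP plus 1000 nM cGMP for 60 min. IMAP fluorescence polarization read-out; apparent Ki derived using apparent KM 10,000 nM.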
As for `COc1ccc(Cc2nc(-c3cnn(C(C)c4ccc(C(F)(F)F)cc4)c3)cc(=O)[nH]2)cc1OC` (single isomer, unassigned) [Example 60, (R)- or (S)-2-(3,4-dimethoxybenzyl)-6-(1-(1-4-(trifluoromethyl)phenyl)ethyl)-1H-pyrazol-4-yl)pyrimidin-4(3H)-one], the Ki was found to be 3.7 nM.
On the same count and under the same terms, next, `Cc1nc(-c2cnn(C(C)c3ccc(C(F)(F)F)cc3C)c2)cc(=O)[nH]1` (single isomer, unassigned) [Example 57, (S)- or (R)-2-methyl-6-(1-(1-(2-methyl-4-(trifluoromethyl)phenyl)ethyl)-1H-pyrazol-4-yl)pyrimidin-4(3H)-one]: 16.4 nM; `Cc1nc(-c2cnn(C(C)c3ccc(C4CC4)cc3C)c2)cc(=O)[nH]1` (single isomer, unassigned) [Example 94, (S)- or (R)-6-(1-(1-(4-cyclopropyl-2-methylphenyl)ethyl)-1H-pyrazol-4-yl)-2-methylpyrimidin-4(3H)-one]: 52.5 nM.

The assay is the same for the next values; noted with them: Lab B; read-out: Human PDE2 Ki (nM) Lab B.
As for `Cc1nc(-c2cn(C(C)c3ccc(C(F)(F)F)cc3)nc2C)cc(=O)[nH]1` (centres unmarked) [Example 80, 2-methyl-6-(3-methyl-1-(1-(4-(trifluoromethyl)phenyl)ethyl)-1H-pyrazol-4-yl)pyrimidin-4(3H)-one], the Ki stood at 140 nM.
On the same count and under the same terms, next, `Cc1nc(-n2cc(C(C)c3ccc(C4CC4)cc3)cn2)cc(=O)[nH]1` (centres unmarked) [Example 39, 6-(4-(1-(4-cyclopropylphenyl)ethyl)-1H-pyrazol-1-yl)-2-methylpyrimidin-4(3H)-one]: 35.3 nM; `Cc1nc(-c2cnn(Cc3ccc(OC(F)(F)F)cc3)c2)cc(=O)[nH]1` [Example 29, 2-Methyl-6-(1-(4-(trifluoromethoxy)benzyl)-1H-pyrazol-4-yl)pyrimidin-4(3H)-one]: 829 nM; `COc1ccc(Cc2nc(-c3cnn(C(C)c4ccc(C(F)(F)F)cc4)c3)cc(=O)[nH]2)cc1OC` (single isomer, unassigned) [Example 60, (R)- or (S)-2-(3,4-dimethoxybenzyl)-6-(1-(1-4-(trifluoromethyl)phenyl)ethyl)-1H-pyrazol-4-yl)pyrimidin-4(3H)-one]: 1.1 nM.
On the same count and under the same terms, with `Cc1nc(-c2cc([C@H](C)c3ccc(C(F)(F)F)cc3)[nH]n2)cc(=O)[nH]1` (single isomer, unassigned) [Example 23] the figure was 19.4 nM; with `Cc1nc(-n2cc(Cc3ccc(OC(F)(F)F)cc3)cn2)cc(=O)[nH]1` [Example 30, 2-Methyl-6-(4-(4-(trifluoromethoxy)benzyl)-1H-pyrazol-1-yl)pyrimidin-4(3H)-one], 1110 nM.
Same read-out and setting: next, `Cc1nc(-n2cc([C@](C)(O)c3ccc(C(F)(F)F)cc3F)cn2)cc(=O)[nH]1` (single isomer, unassigned) [Example 16]: 47.1 nM; `Cc1nc(-n2cc([C@H](C)c3ccc(C(F)(F)F)cc3)cn2)cc(=O)[nH]1` (single isomer, unassigned) [Example 3]: 40.3 nM.
With `Cc1nc(-c2cnn(C(C)c3ccc(C(F)(F)F)cc3C)c2)cc(=O)[nH]1` (single isomer, unassigned) [Example 57, (S)- or (R)-2-methyl-6-(1-(1-(2-methyl-4-(trifluoromethyl)phenyl)ethyl)-1H-pyrazol-4-yl)pyrimidin-4(3H)-one], the inhibition constant Ki was found to be 6.8 nM.
Still for that read-out and setting: next, `Cc1nc(-c2cnn(C(C)c3ccc(C(F)(F)F)cc3)c2C)cc(=O)[nH]1` (single isomer, unassigned) [Example 81, (R)- or (S)-2-methyl-6-(5-methyl-1-(1-(4-(trifluoromethyl)phenyl)ethyl)-1H-pyrazol-4-yl)pyrimidin-4(3H)-one]: 194 nM.
`Cc1nc(-n2ccc([C@H](C)c3ccc(C(F)(F)F)cc3)n2)cc(=O)[nH]1` (single isomer, unassigned) [Example 6]: the inhibitory constant (Ki) came out at 241 nM.

These data come from patent US10287269B2, “Pyrazolyl pyrimidinone compounds as PDE2 inhibitors” (Merck Sharp & Dohme Corp., priority 2015, dated 2019).
